Measured values reported in patent US20250313548A1 (Actio Biosciences, Inc., priority 2023, published 2025).

What follows are compounds tested against human, KCNT1 (Homo sapiens (Human), UniProt Q5JUK3) (assay: FLIPR Tl/K Flux Assay). Conditions: HEK293 cells stably expressing human KCNT1; Tl+ flux stimulated with EC80 of agonist Loxapine.
Type: cell-based
Procedure, shortened: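 Inhibition values come from a Hill-equation fit of % inhibition versus log concentration, using normalized fluorescence (Fmax/Fmin) over a 160 s read. The read followed stimulation with Tl+ plus EC80 agonist loxapine after 30 min compound pre-incubation at 25 °C. Cells were KCNT1-expressing HEK293, dye-loaded 1 h in pH 7.4 HEPES/HBSS with 5 mM probenecid.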

human, KCNT1, sequence (Q5JUK3 whole entry): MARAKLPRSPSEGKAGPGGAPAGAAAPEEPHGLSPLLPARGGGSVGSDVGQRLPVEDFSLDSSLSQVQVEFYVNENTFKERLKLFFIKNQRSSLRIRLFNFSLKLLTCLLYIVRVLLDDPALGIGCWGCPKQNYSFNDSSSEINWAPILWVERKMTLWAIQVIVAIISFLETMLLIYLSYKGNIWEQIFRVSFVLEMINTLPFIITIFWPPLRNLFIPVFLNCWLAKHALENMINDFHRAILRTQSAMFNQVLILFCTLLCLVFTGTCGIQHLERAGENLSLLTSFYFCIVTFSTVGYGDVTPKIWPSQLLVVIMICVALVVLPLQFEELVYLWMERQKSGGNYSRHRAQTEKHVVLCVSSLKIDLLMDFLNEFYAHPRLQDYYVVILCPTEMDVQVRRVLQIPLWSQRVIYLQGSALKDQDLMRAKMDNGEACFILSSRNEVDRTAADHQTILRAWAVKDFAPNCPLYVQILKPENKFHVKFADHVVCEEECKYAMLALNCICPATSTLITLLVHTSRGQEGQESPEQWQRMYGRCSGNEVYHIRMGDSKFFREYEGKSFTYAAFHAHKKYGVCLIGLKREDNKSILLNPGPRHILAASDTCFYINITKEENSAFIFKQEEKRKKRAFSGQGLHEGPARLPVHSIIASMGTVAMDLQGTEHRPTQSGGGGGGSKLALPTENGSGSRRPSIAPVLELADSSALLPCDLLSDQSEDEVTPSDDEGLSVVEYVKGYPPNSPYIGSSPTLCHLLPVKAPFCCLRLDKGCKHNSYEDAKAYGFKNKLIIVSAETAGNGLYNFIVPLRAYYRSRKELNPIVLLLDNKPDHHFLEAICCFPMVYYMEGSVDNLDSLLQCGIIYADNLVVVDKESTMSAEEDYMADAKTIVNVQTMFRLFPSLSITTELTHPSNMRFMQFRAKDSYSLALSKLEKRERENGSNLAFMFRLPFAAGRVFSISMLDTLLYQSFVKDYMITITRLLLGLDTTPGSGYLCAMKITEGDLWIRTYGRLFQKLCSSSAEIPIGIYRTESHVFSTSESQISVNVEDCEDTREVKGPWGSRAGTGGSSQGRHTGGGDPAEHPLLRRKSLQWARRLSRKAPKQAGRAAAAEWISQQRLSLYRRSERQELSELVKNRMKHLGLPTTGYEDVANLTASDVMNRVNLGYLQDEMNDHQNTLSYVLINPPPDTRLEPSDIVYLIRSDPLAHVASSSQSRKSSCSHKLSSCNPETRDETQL

IC50 [µM] | SMILES
< 0.25 | O=C(N[C@H]1CCCn2nc(-c3ccnc(C(F)(F)F)c3)cc21)c1cnn2cc(F)ccc12 [Compound I-408a]
< 0.25 | COc1cc(-c2nc3c(o2)CCC[C@@H]3NC(=O)c2cc(F)cc(C#N)c2)ccn1 [Compound I-275a]
< 0.25 | COc1cc(-c2nc3c(o2)CCC[C@@H]3NC(=O)c2cccc(C#N)c2)ccn1 [Compound I-294a, (S)-3-Cyano-N-(2-(2-methoxypyridin-4-yl)-4,5,6,7-tetrahydrobenzo[d]oxazol-4-yl)benzamide]
< 0.25 | Cc1ccccc1C(=O)N[C@H]1CCc2nn(-c3ccnc(C(F)(F)F)c3)cc21 [Compound I-92a]
< 0.25 | COc1cc(-c2cc3n(n2)CC[C@@H]3NC(=O)c2cc(F)cc(Cl)c2)ccn1 [Compound I-253a, (S)-3-Chloro-5-fluoro-N-(2-(2-methoxypyridin-4-yl)-5,6-dihydro-4H-pyrrolo[1,2-b]pyrazol-4-yl)benzamide]
< 0.25 | CCOc1cc(C(=O)N[C@H]2CCCCn3nc(-c4ccnc(C(F)(F)F)c4)cc32)ccn1 [Compound I-283a, (S)-2-Ethoxy-N-(2-(2-(trifluoromethyl)pyridin-4-yl)-5,6,7,8-tetrahydro-4H-pyrazolo[1,5-a]azepin-4-yl)isonicotinamide]
0.25 to 0.5 | COc1cc(-c2cc3n(n2)CCC[C@@H]3NC(=O)c2cc(C(F)(F)F)ccn2)ccn1 [Compound I-365a]
< 0.25 | O=C(N[C@H]1CCn2nc(-c3ccnc(C(F)(F)F)c3)cc21)C12CC(Cl)(C1)C2 [Compound I-490a, (S)-3-Chloro-N-(2-(2-(trifluoromethyl)pyridin-4-yl)-5,6-dihydro-4H-pyrrolo[1,2-b]pyrazol-4-yl)bicyclo[1.1.1]pentane-1-carboxamide]
< 0.25 | N#Cc1cc(OC(F)(F)F)cc(C(=O)N[C@H]2CCCn3nc(-c4ccnc(C(F)(F)F)c4)cc32)c1 [Compound I-404a]
< 0.25 | Cn1nc(C(F)(F)F)cc1C(=O)N[C@H]1CCCn2nc(-c3cc(C(F)(F)F)cs3)cc21 [Compound I-117a]
0.5 to 1 | Cn1nc(C(F)(F)F)cc1C(=O)N[C@H]1CCCn2nc(-c3cnnc(C(F)(F)F)c3)cc21 [Compound I-307a, (S)-1-Methyl-3-(trifluoromethyl)-N-(2-(6-(trifluoromethyl)pyridazin-4-yl)-4,5,6,7-tetrahydropyrazolo[1,5-a]pyridin-4-yl)-1H-pyrazole-5-carboxamide]
< 0.25 | N#Cc1cccc(C(=O)N[C@H]2CCCc3oc(-c4ccnc(C(F)(F)F)c4)nc32)c1 [Compound I-297a, (S)-3-Cyano-N-(2-(2-(trifluoromethyl)pyridin-4-yl)-4,5,6,7-tetrahydrobenzo[d]oxazol-4-yl)benzamide]
< 0.25 | COc1cc(-c2cc3n(n2)CCCC[C@@H]3NC(=O)c2cc(C(F)(F)F)nn2C)ccn1 [Compound I-126a, (S)—N-(2-(2-Methoxypyridin-4-yl)-5,6,7,8-tetrahydro-4H-pyrazolo[1,5-a]azepin-4-yl)-1-methyl-3-(trifluoromethyl)-1H-pyrazole-5-carboxamide]
< 0.25 | COc1cc(-c2cc3n(n2)CCC[C@@H]3NC(=O)c2cccc(C#N)c2)c(Cl)cn1 [Compound I-239a, (S)-N-(2-(5-Chloro-2-methoxypyridin-4-yl)-4,5,6,7-tetrahydropyrazolo[1,5-a]pyridin-4-yl)-3-cyanobenzamide]
